Assay results from ChEMBL document CHEMBL1151337, “New tertiary alkaloids of Strychnos decussata” (J Nat Prod, 1980).

How the values were obtained:
Mus musculus = assay: Toxicity in ip dosed NMRI mouse assessed as clonic and tonic convulsions assessed as cunvulsive dose; format: organism-based; settings: in vivo
[1] = Toxicity in ip dosed NMRI mouse assessed as clonic and tonic convulsions; format: organism-based; settings: in vivo

SMILES | Activity (Mus musculus) [mg/kg] | LD50 [1] [mg/kg]
C/C=C(/C=O)[C@H]1C[C@H](OC)n2c3c(c4cc(O)ccc42)CCN(C)[C@H]3C1 | 75 | 75
C/C=C(/C=O)[C@H]1C[C@H](OC)n2c3c(c4ccccc42)CCN(C)[C@H]3C1 | 45.3 | 
C/C=C1\[C@@H]2C[C@H]3c4c(c5cc(O)ccc5n4[C@@H](C2)O[C@H]1OC)CCN3C | 84 | 84
C/C=C1\[C@@H]2C[C@H]3c4c(c5cc(O)ccc5n4[C@@H](C2)O[C@@H]1OC)CCN3C | 80 | 90
C/C=C(/C=O)[C@@H]1C[C@H]2c3c(c4ccccc4n3[C@@H](O)C1)CCN2C [AKAGERINE] | 50 | 
